Entries after “also recorded” stand apart in the source; their conditions may differ.
What was measured:
KG-1 = experiment: Cytotoxicity, annexin V/7-AAD viability by flow cytometry, KG-1; assay type: cell-based, human; settings: KG-1, 48 hours, drug range tested 1.25-160 μM
Protocol: In order to assess the structure-activity relationship of DHL and its derivatives, DHL and its derivatives were evaluated against eight human leukemia cell lines. Cell lines were cultured in Iscove's Modified Dulbecco's Medium (IMDM) supplemented with 10%˜20% fetal bovine serum (FBS) according to culture conditions indicated by ATCC and 1% penicillin/streptomycin (Pen/Strep) at 37° C. and 5% CO2. […] Cell viability was determined after incubating for 48 hours.

HOP-62 = experiment: Single dose tumor cell growth inhibition, Non-Small Cell Lung Cancer HOP-62; assay type: cell-based; settings: HOP-62, single dose 10 μM
Text: (§1) DHL is cytotoxic to various leukemia, colon cancer, CNS cancer and prostate cancer cell lines.

SW-620 = experiment: Single dose tumor cell growth inhibition, Colon Cancer SW-620; assay type: cell-based, human; settings: SW-620, single dose 10 μM
Text: as §1

THP-1 = experiment: Cytotoxicity, annexin V/7-AAD viability by flow cytometry, THP-1; assay type: cell-based, human; settings: THP-1, 48 hours, drug range tested 1.25-160 μM
Protocol: In order to assess the structure-activity relationship of DHL and its derivatives, DHL and its derivatives were evaluated against eight human leukemia cell lines. Cell lines were cultured in Iscove's Modified Dulbecco's Medium (IMDM) supplemented with 10%˜20% fetal bovine serum (FBS) according to culture conditions indicated by ATCC and 1% penicillin/streptomycin (Pen/Strep) at 37° C. and 5% CO2. The cells were seeded into 96-well plates and kept at a concentration of 0.5 million cells per mL. The samples were treated with DHL, Leucodine, DHL-Morpholine, DHL-Proline, DHL-Piperidine, and PTL at varying concentrations in triplicates. Cell viability was determined after incubating for 48 hours. The cells were stained with annexin V-fluorescein isothiocyanate or phycoeritrine (FITC/PE) and 7-aminoactinomycin (7-AAD) to detect phosphatidylserine exposition and cell permeability, respectively. At least 50,000 events were recorded per condition on either an LSR-II or LSR-Fortessa flow cytometer (BD Biosciences). Data analysis was conducted using FlowJo 9.6 software for Mac OS X (TreeStar). Cells that were negative for annexin V and 7-AAD were scored as viable.

Log P octanol/water = assay type: physicochemical; settings: experimentally determined
NCI/ADR-RES = experiment: Single dose tumor cell growth inhibition, Ovarian Cancer NCI/ADR-RES; assay type: cell-based; settings: single dose 10 μM
Text: as §1

phospho-p65 = experiment: Western blot of phospho-p65 and total p65 in MOLM-13 cells; assay type: cell-based; settings: 10 or 20 μM, 6 hours
Protocol: (FIG. 8A) Graphical representation of the fold changes of HMOX-1 in MOLM-13 cells. Cells were seeded at 0.5 million cells per milliliter and subject to 20 μM of DHL, leucodine, DHL-proline, DHL-piperidine, DHL-morpholine, or parthenolide for 6 hours. RNA was then extracted and quantitative PCR was performed. Experiments were performed in triplicates. Lines represent mean for each specimen, with error bars representing the SD. Fold change was calculated by the delta-delta Ct method. […] (FIG. 8D) Immunoblot for MOLM-13 cells after 6 hours of treatment with either DHL or PTL with 10 or 20 μM. Blot was probed for phospho-p65 and p65 antibodies. Total p65 is shown as the loading control.

SNB-75 = experiment: Single dose tumor cell growth inhibition, CNS Cancer SNB-75; assay type: cell-based, human; settings: SNB-75, single dose 10 μM
Text: as §1

HMOX-1, HSPA1A, HSPH1 = experiment: Real-time PCR gene expression in KG-1 and MOLM-13 cells; assay type: cell-based; settings: 20 μM, 6 hours
Text: FIG. 1A, FIG. 1B, FIG. 1C, FIG. 1D and FIG. 1E present the changes in gene expression in KG1 or MOLM13 cells after exposure to dehydroleucodine, parthenolide, or derivatives thereof. Plotted is the fold change in expression relative to control after treatment with parthenolide-tyramine (PTL-Tyr), parthenolide (PTL), leucodine (Leuco), dehydroleucodine (DHL), dehydroleucodine-tyramine (DHL-Tyr), or dehydroleucodine-morpholine (DHL-Morp). […] FIG. 1B plots the expression of HSPA1A in KG1 cells. FIG. 1C presents the expression of HSPH1 in KG1 cells. […] FIG. 1E presents the expression of HSPH1 in MOLM13 cells. Error bars represent S.E.M.
MOLM-13 and KG-1 cells were seeded at 0.5 million cells per ml. Cells were treated for 6 hours with 20 μM of parthenolide (PTL), dehydroleucodine (DHL), leucodine (Leu), parthenolide-tyramine (PTL-Tyr), dehydroleucodine-tyramine (DHL-Tyr) and dehydroleucodine-Morpholine (DHL-Morp), and then collected. Total RNA was extracted using the Qiashredder and Qiagen Rneasy mini kits (Quiagen) according to the manufacturer's instructions. Real-time PCR was performed using the Taqman RNA to CT 1-Step kit (Applied Biosystems). […] Single-plex real-time PCR was performed in triplicates in a StepOne plus RealTime PCR system (Applied Biosystems) and analyzed with the StepOne Software. Fold change was calculated using the 2-DDCT method.

SK-OV-3 = experiment: Single dose tumor cell growth inhibition, Ovarian Cancer SK-OV-3; assay type: cell-based; settings: SK-OV-3, single dose 10 μM
Text: as §1

NCI-H322M = experiment: Single dose tumor cell growth inhibition, Non-Small Cell Lung Cancer NCI-H322M; assay type: cell-based; settings: single dose 10 μM
Text: as §1

**Q.** Which LD50 (KG-1) does the source give for `C=C1C(=O)O[C@@H]2[C@H]3C(C)=CC(=O)C3=C(C)CC[C@@H]12` [DHL, dehydroleucodine] here?
**A.** 18.66 µM

**Q.** What about the Percent inhibition (HOP-62) of the same compound?
**A.** 0.0%

**Q.** What about the Percent inhibition (SW-620) of the same compound?
**A.** 30.0%

**Q.** What about the LD50 (THP-1) of the same compound?
**A.** 16.82 µM

**Q.** And the “Log P octanol/water” value (Log P octanol/water)?
**A.** 2.33 (±0.16)

**Q.** And the Percent inhibition (NCI/ADR-RES)?
**A.** 0.0%

**Q.** And the “phospho-p65 level by Western blot” value (phospho-p65)?
**A.** significant decrease

**Q.** And the Percent inhibition (SNB-75)?
**A.** 35.5%

**Q.** What about the “expression of HMOX-1, HSPA1A and HSPH1” value (HMOX-1, HSPA1A, HSPH1) of the same compound?
**A.** activated the expression of all three target genes in both cell lines; also recorded: more potent than PTL

**Q.** And the Percent inhibition (SK-OV-3)?
**A.** 0.0%

**Q.** And the Percent inhibition (NCI-H322M)?
**A.** 0.0%

Source: patent US11059800B2, “Dehydroleucodine derivatives and uses thereof” (Bioventures, LLC, priority 2013, dated 2021)
